# In BindingDB's records for doi:10.1124/mol.51.1.109 (Max-Planck Institute For Experimental Medicine, 1997):
# How the values were obtained:
# P2X purinoceptor 4 [1] = target: T1, P2X purinoceptor 4 (Rattus norvegicus, UniProt P51577)
# T1 sequence (P51577 whole entry): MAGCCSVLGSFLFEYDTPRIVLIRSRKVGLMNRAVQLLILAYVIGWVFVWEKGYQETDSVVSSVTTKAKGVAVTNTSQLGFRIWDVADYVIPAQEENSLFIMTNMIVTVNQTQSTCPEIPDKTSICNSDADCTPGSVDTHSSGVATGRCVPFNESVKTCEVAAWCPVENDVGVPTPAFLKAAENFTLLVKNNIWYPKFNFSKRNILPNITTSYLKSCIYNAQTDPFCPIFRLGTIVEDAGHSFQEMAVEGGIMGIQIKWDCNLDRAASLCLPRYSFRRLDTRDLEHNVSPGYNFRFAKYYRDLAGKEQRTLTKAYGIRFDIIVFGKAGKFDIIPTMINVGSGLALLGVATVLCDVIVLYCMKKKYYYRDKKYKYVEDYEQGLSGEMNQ
# P2X purinoceptor 4 [2] = target: T2, P2X purinoceptor 4 (Homo sapiens, UniProt Q99571)
# T2 sequence (Q99571 whole entry): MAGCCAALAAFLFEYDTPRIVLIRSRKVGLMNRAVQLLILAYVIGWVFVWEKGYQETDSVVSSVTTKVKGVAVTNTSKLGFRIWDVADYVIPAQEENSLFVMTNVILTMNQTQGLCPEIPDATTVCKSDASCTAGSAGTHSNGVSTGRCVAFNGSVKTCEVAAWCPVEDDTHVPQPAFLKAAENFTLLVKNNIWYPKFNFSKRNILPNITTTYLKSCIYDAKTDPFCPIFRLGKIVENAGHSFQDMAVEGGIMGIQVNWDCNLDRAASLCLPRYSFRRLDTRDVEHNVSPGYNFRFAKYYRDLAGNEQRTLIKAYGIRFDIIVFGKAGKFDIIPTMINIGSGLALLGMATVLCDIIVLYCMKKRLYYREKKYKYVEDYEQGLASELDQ
SMILES,Ki (P2X purinoceptor 4 [1]),Ki (P2X purinoceptor 4 [2])
Nc1c(S(=O)(=O)O)cc(Nc2ccc(Nc3nc(Cl)nc(Nc4cccc(S(=O)(=O)O)c4)n3)c(S(=O)(=O)O)c2)c2c1C(=O)c1ccccc1C2=O,0.0462 µM,–
Nc1c(S(=O)(=O)O)cc(Nc2ccc(Nc3nc(Cl)nc(Nc4ccccc4S(=O)(=O)O)n3)c(S(=O)(=O)O)c2)c2c1C(=O)c1ccccc1C2=O,0.128 µM,–
Cc1nc(/N=N/c2ccc(S(=O)(=O)O)cc2S(=O)(=O)O)c(COP(=O)(O)O)c(C=O)c1O,0.5 µM,–
O=S1(=O)OC(c2cc(Br)c(O)c(Br)c2)(c2cc(Br)c(O)c(Br)c2)c2ccccc21 [NSC_8272],0.301 µM,0.0783 µM
Cc1ccc(C(=O)Nc2ccc(S(=O)(=O)O)c3cc(S(=O)(=O)O)cc(S(=O)(=O)O)c23)cc1NC(=O)c1cccc(NC(=O)Nc2cccc(C(=O)Nc3cc(C(=O)Nc4ccc(S(=O)(=O)O)c5cc(S(=O)(=O)O)cc(S(=O)(=O)O)c45)ccc3C)c2)c1 [suramin],0.5 µM,0.178 µM
